Reference: patent publication US8283345B2, “Azetidine analogues of nucleosidase and phosphorylase inhibitors” (Industrial Research Limited, priority 2006, dated 2012)
pKi: −log10 of the molar value. Counter-ions that a name gives are not always drawn. Like-named read-outs stand apart in the source and are kept apart here.

How the values were obtained:
[1] = target: T1, Bovine PNP (Bos taurus, UniProt P55859); test: PNP inhibition, xanthine oxidase coupled assay; type: biochemical
T1 sequence (P55859 1-289): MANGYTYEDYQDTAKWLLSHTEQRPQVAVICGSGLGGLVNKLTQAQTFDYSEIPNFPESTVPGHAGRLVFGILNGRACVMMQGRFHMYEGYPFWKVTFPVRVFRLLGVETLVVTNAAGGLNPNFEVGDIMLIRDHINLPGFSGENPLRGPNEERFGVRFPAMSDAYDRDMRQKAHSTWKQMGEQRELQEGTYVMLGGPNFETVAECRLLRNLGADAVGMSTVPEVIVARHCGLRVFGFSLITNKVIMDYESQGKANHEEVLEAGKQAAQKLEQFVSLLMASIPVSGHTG
Protocol: (§2) PNP and MTAN/MTAP activities were monitored by xanthine oxidase coupled assays, as previously described [Biochemistry, 2006, 45, 12929-12941; Biochemistry, 1998, 37, 8615-8621]. […] Michaelis constants used in data fitting were as follows: 40 μM, 34 μM, and 5 μM for inosine with human, bovine, and P. falciparum PNPs, respectively; 5 μM, 0.43 μM, and 23 μM for MTA with human MTAP, E. coli MTAN, and S. pneumoniae MTAN, respectively.

[2] = target: T2, P. falciparum PNP (Plasmodium falciparum, UniProt Q8I3X4); test: biochemical
T2 sequence (Q8I3X4 1-245): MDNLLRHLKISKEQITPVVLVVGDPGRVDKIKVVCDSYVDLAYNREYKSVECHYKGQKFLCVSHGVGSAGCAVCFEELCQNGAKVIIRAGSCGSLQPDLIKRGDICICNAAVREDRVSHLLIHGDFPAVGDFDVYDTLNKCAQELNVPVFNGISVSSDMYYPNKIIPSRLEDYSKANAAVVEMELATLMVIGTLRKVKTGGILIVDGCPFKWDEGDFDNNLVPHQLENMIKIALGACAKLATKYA
Protocol: as §2

[3] = target: T3, Human PNP (Homo sapiens, UniProt P00491); test: PNP inhibition, xanthine oxidase coupled assay; type: biochemical; details: inosine Km 40 μM
T3 sequence (P00491 1-289): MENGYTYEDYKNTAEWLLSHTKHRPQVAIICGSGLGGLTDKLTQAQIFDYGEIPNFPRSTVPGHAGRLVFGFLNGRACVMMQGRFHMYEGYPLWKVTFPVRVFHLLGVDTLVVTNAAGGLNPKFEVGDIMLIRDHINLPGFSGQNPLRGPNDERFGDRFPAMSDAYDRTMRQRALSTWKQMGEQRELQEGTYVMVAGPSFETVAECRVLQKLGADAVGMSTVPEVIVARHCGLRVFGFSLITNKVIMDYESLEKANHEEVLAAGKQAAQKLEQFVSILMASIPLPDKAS
Protocol: as §2

[4] = target: T4, Human MTAP (Homo sapiens, UniProt Q13126); test: MTAP inhibition, xanthine oxidase coupled assay; type: biochemical; details: MTA Km 5 μM
T4 sequence (Q13126 1-283): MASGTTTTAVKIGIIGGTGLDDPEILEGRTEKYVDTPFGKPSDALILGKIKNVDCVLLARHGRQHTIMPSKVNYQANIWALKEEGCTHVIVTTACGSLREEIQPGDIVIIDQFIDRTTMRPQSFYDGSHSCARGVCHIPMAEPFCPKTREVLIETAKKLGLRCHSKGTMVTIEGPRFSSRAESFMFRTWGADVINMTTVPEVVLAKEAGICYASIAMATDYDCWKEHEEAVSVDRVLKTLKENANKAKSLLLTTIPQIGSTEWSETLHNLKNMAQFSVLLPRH

[5] = target: E. coli MTAN (Escherichia coli, UniProt P0AF12); test: MTAN inhibition, xanthine oxidase coupled assay; type: biochemical; details: MTA Km 0.43 μM
E. coli MTAN, sequence (P0AF12 whole entry): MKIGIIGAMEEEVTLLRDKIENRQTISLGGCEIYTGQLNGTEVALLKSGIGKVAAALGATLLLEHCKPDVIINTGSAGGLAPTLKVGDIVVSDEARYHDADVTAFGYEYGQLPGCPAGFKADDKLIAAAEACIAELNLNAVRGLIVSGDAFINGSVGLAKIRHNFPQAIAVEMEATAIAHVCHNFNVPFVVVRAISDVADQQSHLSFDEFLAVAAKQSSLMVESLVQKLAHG
Protocol: (§1) For PNP assays, inosine and inhibitor concentrations were determined spectrophotometrically using an ε260 of 7.1 mM^−1 cm^−1 (pH 6) [Dawson' et al, Data for Biochemical Research, 3rd ed., 1986, Clarendon Press, Oxford, U.K.] and an ε261 of 9.54 mM^−1 cm^−1 (pH 7) [Lim, M.-I.; Ren, Y.-Y.; Otter, B. A.; Klein, R. S., J. Org. Chem. 1983, 48, 780-788], respectively. For MTAN/MTAP assays, methylthioadenosine and inhibitor concentrations were determined using an ε260 of 14.9 mM^−1 cm^−1 (pH 6) [Dawson et al, as above] and an ε275 of 8.5 mM^−1 cm^−1 (pH 7), [J. Org. Chem. 1983, 48, 780-788] respectively. PNP and MTAN/MTAP activities were monitored by xanthine oxidase coupled assays, as previously described [Biochemistry, 2006, 45, 12929-12941; Biochemistry, 1998, 37, 8615-8621]. In all cases, the inhibitor concentration was at least 10-fold greater than the enzyme concentration, as required for simple analysis of slow-onset tight-binding inhibition [Morrison, J. F.; Walsh, C. T. Adv. Enzymol. Relat. Areas Mol. Biol., 1988, 61, 201-301] Michaelis constants used in data fitting were as follows: 40 μM, 34 μM, and 5 μM for inosine with human, bovine, and P. falciparum PNPs, respectively; 5 μM, 0.43 μM, and 23 μM for MTA with human MTAP, E. coli MTAN, and S. pneumoniae MTAN, respectively.

[6] = target: S. pneumoniae MTAN (Streptococcus pneumoniae, UniProt Q8DQ16); test: MTAN inhibition, xanthine oxidase coupled assay; type: biochemical; details: MTA Km 23 μM
S. pneumoniae MTAN, sequence (Q8DQ16 entry or part of it): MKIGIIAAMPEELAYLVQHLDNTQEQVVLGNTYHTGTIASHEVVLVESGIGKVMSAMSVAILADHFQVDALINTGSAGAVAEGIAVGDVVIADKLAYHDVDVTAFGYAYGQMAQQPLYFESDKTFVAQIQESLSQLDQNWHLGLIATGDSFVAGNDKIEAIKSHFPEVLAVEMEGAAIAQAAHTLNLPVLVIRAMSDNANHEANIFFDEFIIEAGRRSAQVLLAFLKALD
Protocol: as §1

[7] = inhibition constant Ki, inosine Km 34 μM, read-out: Ki Bovine PNP
[8] = inhibition constant Ki, read-out: Ki Human PNP

`O=c1[nH]cnc2c(CN3[C@H](CO)C[C@@H]3CO)c[nH]c12` [Compound 36, meso-[(9-Deazahypoxanthin-9-yl)methyl]azetidine-2,4-dimethanol hydrochloride] gave a pKi [1, 7] of 7.80, a pKi [2] of 5.89 and a pKi [3, 8] of 7.89.

`O=c1[nH]cnc2c(CN3CC(CO)C3)c[nH]c12` [Compound 19, 1-[(9-Deazahypoxanthin-9-yl)methyl]azetindine-3-methanol] gave a pKi [1, 7] of 8.32, a pKi ([2]; read-out: Ki P. falciparum PNP) of under 5.00 and a pKi [3, 8] of 8.20.

In the case of `O=c1[nH]cnc2c(CN3[C@H](CO)C[C@H]3CO)c[nH]c12` (racemic) [(±)-37, (±)2,4-trans-[(9-Deazahypoxanthin-9-yl)methyl]azetidine-2,4-dimethanol hydrochloride], the pKi [1, 7] was 6.44, the pKi [2] was 6.24 and the pKi [3, 8] was 6.55.

Work on `CSCC1(CO)CN(Cc2c[nH]c3c(N)ncnc23)C1` [Compound 21, 1-[(9-Deazaadenin-9-yl)methyl]-3-methylthiomethylazetidine-3-methanol hydrochloride] yielded a pKi [4] of 6.85, a pKi [5] of 9.08 and a pKi [6] of 6.82.

`O=c1[nH]cnc2c(CN3CC(CO)(CO)C3)c[nH]c12` [Compound 18, 1-[(9-Deazahypoxanthin-9-yl)methyl]azetidine-3,3-dimethanol] gave a pKi [1] of 10.19, a pKi ([1]; Ki*, slow-onset tight-binding inhibition, inosine Km 34 μM, read-out: Ki* Bovine PNP) of 9.63 and a pKi [2] of under 5.00. The pKi [3, 8] was 9.64.

For `O=c1[nH]cnc2c(CN3CCC3CO)c[nH]c12` (racemic) [(±)-43, (±)7-((2-(Hydroxymethyl)azetidin-1-yl)methyl)-5H-pyrrolo[3,2-d]pyrimidin-4-ol], the pKi [1] was 8.74, the pKi ([3]; Ki Human PNP, inhibition constant Ki) was 8.74 and the pKi ([3]; Ki* Human PNP, Ki*, slow-onset tight-binding inhibition) was 9.59.

`CSCC1CN(Cc2c[nH]c3c(N)ncnc23)C1` [Compound 22, 1-[(9-Deazaadenin-9-yl)methyl]-3-methylthiomethylazetidine] gave a pKi [4] of 8.70, a pKi [5] of 9.35 and a pKi [6] of 7.08.
